Experimental data published in patent US6924300B2, “Oxyiminoalkanoic acid derivatives” (Takeda Chemical Industries, Ltd., priority 1998, dated 2005).

SMILES	melting point
COc1ccc(/C(=N/OCc2ccc(OCc3nc(-c4ccccc4)oc3C)cc2)C(=O)O)cc1 [Example 24, Z-2-(4-methoxyphenyl)-2-[4-(5-methyl-2-phenyl-4-oxazolylmethoxy)benzyloxyimino]acetic acid]	183 to 184 °C
Cc1oc(-c2ccccc2)nc1COc1ccc(CO/N=C(\CCCCCCC(=O)O)c2ccc(Cl)cc2)cc1 [Example 123, E-8-(4-chlorophenyl)-8-[4-(5-methyl-2-phenyl-4-oxazolylmethoxy)benzyloxyimino]octanoic acid]	90 to 91 °C
Cc1oc(-c2ccccc2)nc1COc1cccc(CO/N=C(\CCCCC(=O)O)c2ccccc2)c1 [Example 76, E-6-[3-(5-methyl-2-phenyl-4-oxazolylmethoxy)benzyloxyimino]-6-phenylhexanoic acid]	114 to 115 °C
Cc1oc(-c2ccco2)nc1COc1ccc(CO/N=C(\CCC(=O)O)c2ccccc2)cc1 [Example 94, E-4-[4-[2-(2-furyl)-5-methyl-4-oxazolylmethoxy]benzyloxyimino]-4-phenylbutyric acid]	124 to 125 °C
CCOC(=O)CC/C(=N\OCc1ccc(OCc2nc(-c3ccccc3)oc2C)cc1)c1ccc(Oc2ccccc2)cc1 [Example 46, ethyl E-4-[4-(5-methyl-2-phenyl-4-oxazolylmethoxy)benzyloxyimino]-4-(4-phenoxyphenyl)butyrate]	118 to 119 °C
Cc1oc(-c2ccccc2)nc1COc1ccc(CO/N=C(\CCC(=O)O)c2cccnc2)cc1 [Example 70, E-4-[4-(5-methyl-2-phenyl-4-oxazolylmethoxy)benzyloxyimino]-4-(3-pyridyl)butyric acid]	158 to 159 °C
COC(=O)CC/C(=N\OCc1ccc(OCCc2nc(-c3ccccc3)oc2C)cc1)c1ccccc1 [Example 48, methyl E-4-[4-[2-(5-methyl-2-phenyl-4-oxazolyl)ethoxy]benzyloxyimino]-4-phenylbutyrate]	73 to 74 °C
COc1cc(CO/N=C(\CCC(=O)O)c2ccccc2)ccc1OCc1nc(-c2ccco2)oc1C [Example 148, E-4-[4-[2-(2-furyl)-5-methyl-4-oxazolylmethoxy]-3-methoxybenzyloxyimino]-4-phenylbutyric acid]	131 to 132 °C
CCOC(=O)/C(=N/OCc1ccc(OCc2nc(-c3ccccc3)oc2C)cc1)c1ccc(Br)cc1 [Example 22, ethyl E-2-(4-bromophenyl)-2-[4-(5-methyl-2-phenyl-4-oxazolylmethoxy)benzyloxyimino]acetate]	105 to 106 °C
Cc1oc(-c2ccccc2)nc1COc1ccc(CO/N=C2\CC(C(=O)O)c3ccccc32)cc1 (stereo not shown) [Example 62, E-3-[4-(5-methyl-2-phenyl-4-oxazolylmethoxy)benzyloxyimino]-1-indancarboxylic acid]	148 to 149 °C
O=C(O)CC/C(=N\OCc1ccc(OCc2cn3c(-c4ccccc4)cccc3n2)cc1)c1ccccc1 [Example 57, E-4-[4-(5-phenylimidazo[1,2-a]pyridin-2-ylmethoxy)benzyloxyimino]-4-phenylbutyric acid]	160 to 161 °C
O=C(O)CC/C(=N\OCc1ccc(OCc2cc(-c3ccccc3)on2)cc1)c1ccccc1 [Example 90, E-4-phenyl-4-[4-(5-phenyl-3-isoxazolylmethoxy)benzyloxyimino]butyric acid]	100 to 101 °C
Cc1oc(-c2ccco2)nc1COc1ccc(CO/N=C(\CCCCC(=O)O)c2ccccc2)cc1 [Example 132, E-6-[4-[2-(2-furyl)-5-methyl-4-oxazolylmethoxy]benzyloxyimino]-6-phenylhexanoic acid]	112 to 113 °C
Cc1oc(-c2cccs2)nc1COc1ccc(CO/N=C(\CCCCC(=O)O)c2ccccc2)cc1 [Example 135, E-6-[4-[5-methyl-2-(2-thienyl)-4-oxazolylmethoxy]benzyloxyimino]-6-phenylhexanoic acid]	101 to 102 °C
Cc1oc(-c2ccccc2)nc1COc1ccc(CO/N=C(\CCCC(=O)O)c2ccccc2)cc1 [Example 18, E-5-[4-(5-methyl-2-phenyl-4-oxazolylmethoxy)benzyloxyimino]-5-phenylpentanoic acid]	129 to 130 °C
O=C(O)CCCCCC/C(=N\OCc1ccc(OCc2noc(-c3ccccc3)n2)cc1)c1ccccc1 [Example 128, E-8-phenyl-8-[4-(5-phenyl-1,2,4-oxadiazol-3-ylmethoxy)benzyloxyimino]octanoic acid]	76 to 77 °C
Cc1oc(-c2ccccc2)nc1COc1ccc(CO/N=C(\C(=O)O)c2ccc(-c3ccsc3)cc2)cc1 [Example 30, Z-2-[4-(5-methyl-2-phenyl-4-oxazolylmethoxy)benzyloxyimino]-2-[4-(3-thienyl)phenyl]acetic acid]	205 to 206 °C (dec.)
Cc1oc(-c2ccccc2)nc1COc1ccc(CO/N=C(\Cc2ccccc2)C(=O)O)cc1 [Example 6, E-2-[4-(5-methyl-2-phenyl-4-oxazolylmethoxy)benzyloxyimino]-3-phenylpropionic acid]	143 to 144 °C (dec.)
Cc1oc(-c2ccccc2)nc1COc1ccc(CO/N=C(\CCCCCCCC(=O)O)c2ccccc2)cc1 [Example 73, E-9-[4-(5-methyl-2-phenyl-4-oxazolylmethoxy)benzyloxyimino]-9-phenylnonanoic acid]	67 to 68 °C
Cc1oc(-c2ccccc2)nc1COc1ccc(CO/N=C(/C(=O)O)c2cccc(Oc3ccccc3)c2)cc1 [Example 14, E-2-[4-(5-methyl-2-phenyl-4-oxazolylmethoxy)benzyloxyimino]-2-(3-phenoxyphenyl)acetic acid]	55 to 65 °C

Further lines, results first:

melting point	SMILES
67 to 69 °C	COC(=O)CC/C(=N\OCc1ccc(OCc2nc(-c3ccco3)oc2C)c(OC)c1)c1ccccc1 [Example 147, methyl E-4-[4-[2-(2-furyl)-5-methyl-4-oxazolylmethoxy]-3-methoxybenzyloxyimino]-4-phenylbutyrate]
116 to 117 °C	Cc1oc(-c2ccccc2)nc1COc1ccccc1CO/N=C(\CCC(=O)O)c1ccccc1 [Example 144, E-4-[2-(5-methyl-2-phenyl-4-oxazolylmethoxy)benzyloxyimino]-4-phenylbutyric acid]
72 to 73 °C	CN(CCOc1ccc(CO/N=C(\CCC(=O)O)c2ccccc2)cc1)c1ncccn1 [Example 51, E-4-[4-[2-(methyl-2-pyrimidylamino)ethoxy]benzyloxyimino]-4-phenylbutyric acid]
134 to 135 °C	COc1cc(CO/N=C(\CCC(=O)O)c2ccccc2)ccc1OCc1nc(-c2ccccc2)oc1C [Example 150, E-4-[3-methoxy-4-(5-methyl-2-phenyl-4-oxazolylmethoxy)benzyloxyimino]-4-phenylbutyric acid]
107 to 108 °C	Cc1oc(-c2ccccc2)nc1COc1ccc(CON=C(CC(=O)O)c2ccccc2)cc1 [Example 53, 3-[4-(5-methyl-2-phenyl-4-oxazolylmethoxy)benzyloxyimino]-3-phenylpropionic acid]
93 to 94 °C	CN(CCOc1ccc(CO/N=C(\C(=O)O)c2ccccc2)cc1)c1ccccn1 [Example 3, Z-2-[4-[2-(methyl-2-pyridylamino)ethoxy]benzyloxyimino]-2-phenylacetic acid]
89 to 90 °C	COc1cc(CO/N=C(\CCC(=O)O)c2ccccc2)cc(OC)c1OCc1nc(-c2ccccc2)oc1C [Example 146, E-4-[3,5-dimethoxy-4-(5-methyl-2-phenyl-4-oxazolylmethoxy)benzyloxyimino]-4-phenylbutyric acid]
111 to 112 °C	Cc1oc(-c2ccccc2)nc1COc1ccc(CO/N=C(\CCCC(C)(C)C(=O)O)c2ccccc2)cc1 [Example 141, E-2,2-dimethyl-6-[4-(5-methyl-2-phenyl-4-oxazolylmethoxy)benzyloxyimino]-6-phenylhexanoic acid]
133 to 134 °C	O=C(O)CC/C(=N\OCc1ccc(OCc2ccc3ccccc3n2)cc1)c1ccccc1 [Example 104, E-4-phenyl-4-[4-(2-quinolinylmethoxy)benzyloxyimino]butyric acid]
161 to 162 °C	Cc1oc(-c2ccccc2)nc1COc1ccc(CO/N=C(\CCC(=O)O)c2ccncc2)cc1 [Example 71, E-4-[4-(5-methyl-2-phenyl-4-oxazolylmethoxy)benzyloxyimino]-4-(4-pyridyl)butyric acid]
156 to 157 °C (dec.)	Cc1oc(-c2ccccc2)nc1COc1ccc(CO/N=C(\C(=O)O)c2cccnc2)cc1 [Example 35, Z-2-[4-(5-methyl-2-phenyl-4-oxazolylmethoxy)benzyloxyimino]-2-(3-pyridyl)acetic acid]
56 to 57 °C	Cc1oc(-c2ccccc2)nc1COc1ccc(CO/N=C(/CCCCCCC(=O)O)c2ccc(F)cc2)cc1 [Example 126, Z-8-(4-fluorophenyl)-8-[4-(5-methyl-2-phenyl-4-oxazolylmethoxy)benzyloxyimino]octanoic acid]
147 to 148 °C	C/C(=N\OCc1ccc(OCc2nc(-c3ccccc3)oc2C)cc1)C(=O)O [Example 9, E-2-[4-(5-methyl-2-phenyl-4-oxazolylmethoxy)benzyloxyimino]propionic acid]
144 to 145 °C	O=C(O)CC/C(=N\OCc1ccc(OCc2coc(-c3ccccc3)n2)cc1)c1ccccc1 [Example 102, E-4-phenyl-4-[4-(2-phenyl-4-oxazolylmethoxy)benzyloxyimino]butyric acid]
150 to 151 °C (dec.)	Cc1oc(-c2ccccc2)nc1COc1ccc(CO/N=C(/C(=O)O)c2ccc(F)cc2)cc1 [Example 16, E-2-(4-fluorophenyl)-2-[4-(5-methyl-2-phenyl-4-oxazolylmethoxy)benzyloxyimino]acetic acid]
182 to 183 °C (dec.)	Cc1oc(-c2ccccc2)nc1COc1ccc(CO/N=C(\C(=O)O)c2ccc(F)cc2)cc1 [Example 15, Z-2-(4-fluorophenyl)-2-[4-(5-methyl-2-phenyl-4-oxazolylmethoxy)benzyloxyimino]acetic acid]
101 to 102 °C	Cc1oc(-c2ccccc2)nc1COc1ccc(CO/N=C(/CCCCC(=O)O)c2ccccc2)cc1 [Example 61, Z-6-[4-(5-methyl-2-phenyl-4-oxazolylmethoxy)benzyloxyimino]-6-phenylhexanoic acid]
